Measured values: patent publication US20220202753A1, “METHOD OF DELIVERY OF INTRAVENOUS BACLOFEN” (Allaysis, LLC, priority 2020, published 2022)
Converted amounts (≈) assume the structure as drawn.

What was measured:
[1] = Population pharmacokinetic modeling and simulation of IV baclofen infusion duration; parameters: species or system human
Procedure: Plasma concentrations from cohorts 2 and 3 from Study 2 described above were used to build a two-compartment model simultaneously describing the IV and PO routes of administration. Population PK models were developed using data from cohort 3 and cohorts 2 and 3 combined (see FIGS. 4 and 5). It is worth noting that the PK parameter estimates from both study populations were similar. Two PK models with fixed absorption rate constants (Ka) of 0.6 and 0.8 hr^−1 were used. These were determined from estimates from the population pharmacokinetic model and literature.
To assess the effect of infusion duration on Cmax and AUC, simulations were performed using the population PK parameter estimates determined from the baclofen dose ranging study. Using the models described above, simulations (n=10) of 30 subjects were completed using a 20 mg oral dose and IV doses of 15 and 16 mg infused over 120, 150, 180, and 210 minutes. The simulated data were then analyzed using non-compartmental analysis and bioequivalence of the maximum concentration and area under the curve was assessed. FIGS. 10 and 11 summarize how many times of the 10 simulations that the infusion rate met bioequivalence when 16 and 15 mg doses were used, respectively.
To assess the effect of infusion duration on Cmax, a population pharmacokinetic model was developed using the observed plasma concentrations of baclofen following oral dosing of 20 mg and IV dosing of 15 mg infused over 10 and 60 minutes. Plasma concentrations of baclofen were best described by a two-compartment model, displaying a very rapid tissue distribution phase indicative of highly perfused tissues such as the liver, lung and brain and a more prolonged elimination phase. […] Using the PK model, baclofen concentrations for a 20t mg oral dose, a 15 mg IV dose infused over 180 minutes, and 16 mg IV dose infusions administered over 180 and 240 min were simulated. This allowed a determination of the effect of infusion duration on baclofen Cmax.

[2] = cited from earlier work
[3] = Study 2: dose escalation study of IV baclofen in healthy adult volunteers; assay type: in vivo, human; conditions: for subjects with asymptomatic nystagmus: 10-minute infusion, of 12 subjects; for bioavailability: human, plasma
Procedure: Study 2: Dose Escalation Study of IV Baclofen in Healthy Adult Volunteers
Following completion of the first-in-human study, a dose escalation study of IV and oral baclofen in 36 healthy volunteers was carried out using a randomized crossover oral/IV dose design and incorporating the investigational baclofen IV injection. The objectives of the study were: 1) characterize the pharmacokinetics of clinically relevant doses of oral and intravenous baclofen, 2) determine the safety profile of oral and intravenous baclofen, and 3) estimate bioequivalence parameters (AUC and Cmax) for 10- and 60-minute (only 15 mg dose) infusions of baclofen.
The general design of the study involved three cohorts of 12 subjects. Initially 3 subjects were randomized to receive the lowest dosing regimen. These subjects received a 7.5 mg IV infusion, followed by a washout period of 2 or more days, followed by a 10 mg oral dose. […] Twelve subjects completed Cohort 1 and received a […] IV and a 10 mg oral dose. The IV baclofen doses were based on a 75% bioavailability observed in the pilot study. In Cohort 2, 12 different subjects received 11.5 mg of IV and 15 mg of oral baclofen. In Cohort 3, another 12 subjects received 20 mg of oral and 15 mg of IV baclofen. Once all subjects had completed the 15 mg IV dose without complications, an additional dosing period was added to this Cohort in which 15 mg baclofen was infused over 60 in to 12 subjects. […] Blood samples were collected between 0-24 hours. A validated, liquid chromatography-mass spectroscopy assay was used to measure plasma baclofen concentrations.
Pharmacokinetic analysis was performed with Phoenix (Centara), a pharmacokinetic data analysis package. Pharmacokinetic parameters, including the observed maximum concentration (Cmax), the observed time to maximum concentration (Tmax), area under the concentration-time curve (AUC), clearance (CL), and volume of distribution (Vd), were estimated using non-compartmental analysis. The absolute oral bioavailability was calculated by dividing the dose-normalized AUC after oral dosing by the dose-normalized AUC after intravenous dosing. For an exploratory study of bioequivalence, the 90% confidence intervals of the geometric mean AUC(0-t), AUC(0-∞) and Cmax oral/AV ratios were determined using the 60-minute infusion as the test dose and the oral […] dose as the reference.

[4] = Study 1: two-way crossover study of oral and intravenous baclofen in healthy adult volunteers; assay type: in vivo, human
Text: Study 1: Two-Way Crossover Study of Oral and Intravenous Baclofen in Healthy Adult Volunteers
The objective of the study was to characterize baclofen pharmacokinetics following oral and IV administration following low doses in healthy adult volunteers and determine the safety profile of an IV baclofen formulation.
This study was a randomized, open label, balanced, two-treatment, single dose, crossover design in normal, healthy adult human subjects under fasting conditions.
Initially, three adult volunteers received a single 3 mg IV and a 5 mg oral baclofen dose on separate study days. On the first day of drug administration in the study, one subject was given baclofen intravenously, and two subjects were given baclofen orally. On the second day of drug administration in the study, those that received baclofen orally received the TV dose and the individual who received the IV dose received the oral dose. Clinical tolerance was assessed, and plasma concentrations of baclofen were measured from the first three subjects before additional subjects were entered into the study. Nine additional adult volunteers received single 5 mg IV and 10 mg oral baclofen doses on separate days. Randomization occurred in a 1:1 ratio, such that all subjects received IV and oral baclofen on separate study days, but not necessarily in the same order. A total of twelve (12) subjects completed the clinical phase of the study. Plasma samples of 12 subjects were analyzed. However, the data from nine (9) subjects who received 5 mg IV and 10 mg oral tablet were considered for pharmacokinetic analysis and the calculation of within-subject variability. The three subjects who received 3 mg IV/5 mg oral baclofen were excluded from the pharmacokinetic analysis because more than half of the plasma concentrations were below the limit of quantitation (BLQ). Therefore, meaningful estimation of AUC was not possible for these subjects.

[5] = Combined results of the two pilot pharmacokinetic studies (first in human and dose escalation); assay type: in vivo; conditions: for bioavailability: human, plasma
Procedure: Two pilot studies were conducted to characterize baclofen pharmacokinetics and safety following intravenous administration and to access absolute bioavailability of IV and oral baclofen. These studies are described in: A Pilot Study Assessing Pharmacokinetics and Tolerability of Oral and Intravenous Baclofen in Healthy Adult Volunteers, Suresh K. Agarwal, Robert L. Kriel, James C. Cloyd, Lisa D. Coles, Lisa A. Scherkenbach, Michael H. Tobin, and Linda E. Krach, Journal of Child Neurology 2014, 30(1) 37-41; and A Randomized Dose Escalation Study of intravenous Baclofen in Healthy Volunteers: Clinical Tolerance and Pharmacokinetics, Schmitz N S, Krach L E, Coles L D, Mishra U, Agarwal S K, Cloyd J C, Kriel R L. PM&R, 2017, Volume 9(8), 743-750, both hereby incorporated by reference as though fully set forth herein. […] In order to meet bioequivalency criteria for both exposure (AUC) and peak concentration (Cmax), it was concluded that infusion times needed to be longer. To that end, modeling and simulation studies were performed to predict IV baclofen dosing regimens that would be bioequivalent to a 20 mg oral dose with respect to both AUC and Cm. These simulations formed the basis for a pivotal bioequivalence study where three different dosing regimens of baclofen IV (15 mg infused over 3 hours: 16 mg infused over 3 hours; and 16 mg infused over 4 hours, respectively) were compared to a single dose of a 20 mg oral tablet. Each of these IV regimens was bioequivalent to the 20 mg oral dosing but the 16 mg/3 hours dosing best met the bioequivalence criteria.
An important goal for adjusting the dose and duration of a baclofen infusion was to achieve bioequivalent systemic exposure (Cmax and AUC) between a single-dose baclofen IV infusion and a 20 mg oral baclofen tablet.

[6] = Clinical bioequivalence study of baclofen injection compared to baclofen tablets in healthy adult volunteers; assay type: in vivo, human
Text: This study was designed as a two-part, single-dose bioequivalence study of baclofen injection (test formulation) compared to commercial baclofen tablets (reference product) in healthy adult volunteers under fasted conditions. Part 1 of this study was a single-dose, open-label, four-treatment, randomized, crossover bioequivalence study of baclofen tablets and baclofen injection in healthy adults under fasted conditions. If needed, Part 2 of this study was to be a single-dose, two-way crossover between the most promising infusion of baclofen injection from Part 1 and baclofen tablets.
Subjects were randomized to receive each of 4 treatments in a randomized, crossover fashion: • 15 mg of baclofen injection administered intravenously over 180 minutes • 16 mg of baclofen injection administered intravenously over 180 minutes • 16 mg of baclofen injection administered intravenously over 240 minutes • 20 mg of baclofen tablet administered orally
Each treatment administration was separated by a washout period of at least 3 days. Each dose was administered following a 10-hour overnight fast.
During each study period, 6 mL blood samples were obtained prior to study drug administration and at selected times through 48 hours after drug administration. In the study periods in which subjects received an IV infusion. PK sampling was timed relative to the start of the infusion. Plasma pharmacokinetic samples were analyzed for baclofen using a validated achiral bioanalytical method. Appropriate pharmacokinetic parameters were calculated for each formulation using non compartmental methods.
Treatments A, B, and C: • Treatment A dose:=15 mg of baclofen injection administered intravenously over 180 minutes • Treatment B dose=16 mg of baclofen injection administered intravenously over 180 minutes • Treatment C dose=16 mg of baclofen injection administered intravenously over 240 minutes
Control Product: Treatment D: • Baclofen Tablet, 20 mg, dose:=1×20 mg tablet
Concentration-time data for baclofen were analyzed using noncompartmental methods in Phoenix™ WinNonlin® Version 6.3, Certara L.P.). During the pharmacokinetic analysis, concentrations below the limit of quantitation […] up to the time of the first quantifiable concentration were treated ac zero. Embedded (values between 2 quantifiable concentrations) and/or terminal BLQ concentrations were treated as “missing”. Actual sample times, relative to the time of dose, were used in the pharmacokinetic analysis.
During each baclofen injection treatment period, samples were drawn at 0 hour (predose) and 0.5, 1.0, 1.5, 2.0, 2.5, 3.0, 3.5, 4.0, 4.5, 5.0, 6.0, 7, 8, 10, 12, 18, 24, 30, 36, and 48 hours after starting the infusion.
During the baclofen tablet administration treatment period, samples were drawn at 0 hour (predose) and at 0.25, 0.5, 0.75, 1.0, 1.5, 2.0 3.0, 3.5, 4.0, 5.0, 6.0, 7, 8, 10, 12, 18, 24, 30, 36, and 48 hours after oral administration.

[7] = 5 mg IV infused over 15 minutes vs 10 mg oral

NCC(CC(=O)O)c1ccc(Cl)cc1 (centres unmarked) [baclofen, 4-amino-3-[4-chlorophenyl] butanoic acid]
mean bioavailability ([1]; population PK model estimate): 84%
population mean terminal t1/2 (β) ([1]; two-compartment population PK model): approximately 4.2 hours
mean distribution t1/2 ([1]; two-compartment population PK model, 20 mg oral, 15 mg IV over 10 and 60 minutes): ~0.3 h
solubility in chloroform ([2]; chloroform): insoluble
solubility in methanol ([2]; methanol): very slightly soluble
solubility in water ([2]; water): 2090 µg/mL (≈ 9.78 mM)
subjects with asymptomatic nystagmus ([3]; 7.5 mg IV): 2 subjects
subjects with asymptomatic nystagmus ([3]; 11.5 mg IV): 6 subjects
subjects with asymptomatic nystagmus ([3]; 15 mg IV): 6 subjects
subjects with mild transient ataxia ([3]; 15 mg IV, 60-minute infusion): Two
subjects with nystagmus ([3]; 15 mg IV, 60-minute infusion): two
bioequivalence of baclofen IV and oral baclofen by AUC0-t and AUC0-inf ([3]; 15 mg at 60-min infusion): not
subjects with mild transient ataxia ([3]; 20 mg oral): One
bioequivalence of IV infusions and oral baclofen by Cmax ([3]; 10- and 60-minute IV infusions): not bioequivalent
bioequivalence of baclofen IV and oral baclofen by AUC0-t and AUC0-inf ([3]; 10-min infusions at all dose levels): demonstrated
mean Cmax ratio of IV infusion to oral baclofen ([3]; 10-minute IV infusion, CI 247-281%): 263%
mean Cmax ratio of IV infusion to oral baclofen ([3]; 60-minute IV infusion, CI 135-165%): 149%
adverse effects ([3]; following both oral and IV doses): Mild, self-limited
bioavailability ([3]; oral, all cohorts, read-out: estimated mean bioavailability): 89%
bioavailability ([3]; cohort 2 (11.5 mg IV, 15 mg oral), read-out: bioavailability estimate): 85.8%
bioavailability ([3]; cohort 3 (15 mg IV, 20 mg oral), read-out: bioavailability estimate): 81.2%
subjects not awake (took 20 seconds to awaken) ([3]; three and a half hours after a 10 mg oral dose): one
AUC of IV dose compared with oral dose [4, 7]: similar
Cmax of IV dose compared with oral dose [4, 7]: higher
Tmax of IV dose compared with oral dose [4, 7]: earlier
tolerability ([4]; 3 and 5 mg IV): well tolerated
bioavailability ([4]; human, plasma, 10 mg oral vs 5 mg IV, n=9, fasting, read-out: estimated mean absolute bioavailability of oral baclofen): 74%
bioavailability ([5]; oral, 45 subjects, read-out: inter-patient range of % F): 42 to 132%
bioavailability ([5]; oral, two pilot studies, 10- to 60-minute IV infusions, healthy volunteers, read-out: estimated mean bioavailability of oral baclofen): 74 to 85%
bioavailability ([5]; po, 11.5 mg, read-out: mean oral bioavailability): 80%
bioavailability ([5]; po, 15 mg, read-out: mean oral bioavailability): 85%
bioavailability ([5]; po, 45 subjects, read-out: mean bioavailability of oral baclofen following a single dose): ~86%
ratio of an IV to an oral dose ([5]; two prospective studies in healthy volunteers): 80-85%
geometric mean ratio vs. Treatment D (20 mg oral tablet) for AUClast ([6]; 16 mg IV over 180 minutes, 90% CI 89.7-94.6%): 92.1%
geometric mean ratio vs. Treatment D (20 mg oral tablet) for AUCinf ([6]; 16 mg IV over 180 minutes, 90% CI 89.8-94.6%): 92.2%
geometric mean ratio vs. Treatment D (20 mg oral tablet) for Cmax ([6]; 16 mg IV over 180 minutes, 90% CI 93.7-101.0%): 97.3%
median Tmax ([6]; 20 mg oral tablet, fasted): 1.0 h
conversion factor to the oral regimen giving bioequivalent substitution ([6]; IV administered over 180 minutes): 0.8
bioequivalence to the 20 mg baclofen oral tablet ([6]; all three IV infusions: 15 mg over 180 min, 16 mg over 180 min, 16 mg over 240 min): bioequivalent
half-life ([6]; human, plasma, other: intravenous infusions and oral tablet, IV infusions and oral tablet, read-out: mean T1/2): 5.5 to 5.8 h
difference in median Tmax (oral tablet earlier than IV infusions) ([6]; human, plasma, other: oral tablet versus intravenous infusions, 20 mg oral tablet vs IV infusions): 2 to 3 h
Tmax ([6]; human, plasma, across IV infusions (15 mg/180 min, 16 mg/180 min, 16 mg/240 min), read-out: median Tmax): 3 to 4 h
clearance ([6]; human, plasma, across IV infusions, read-out: mean total systemic clearance (CLT)): 147 to 148 mL/min
Vd ([6]; human, plasma, across IV infusions, read-out: mean volume of distribution (Vz)): 69.8 to 71.4 L
